From PMC8398847, “Isavuconazole: Thermodynamic Evaluation of Processes Sublimation, Dissolution and Partition in Pharmaceutically Relevant Media” (Molecules, 2021)
“And” between values parts separate entries of the source, which are not always exact repeats. Equal values may be shown once.

Assay: Vapor pressure by transpiration (inert gas-carrier transfer) method; sublimation thermodynamic functions
Format: physicochemical
Conditions: for lnp: p in Pa
Method: The thermodynamic functions of sublimation were calculated as the fitting coefficients of the Clarke and Glew equation [17]:(1) Rlnp/p^0=ΔcrgGm°(θ)/θ+ΔcrgHm°(θ)(1/θ−1/T)+ΔcrgCp,m°(θ)(θ/T−1+lnT/θ) where ΔcrgHm°(θ) is the standard molar sublimation enthalpy, ΔcrgGm°(θ) is the standard molar Gibbs energy of sublimation, and ΔcrgCp,m°(θ) is the difference between the constant pressure standard molar heat capacity Cp,m°(g) of the gaseous compound and the constant pressure standard molar heat capacity Cp,m°(cr) of the crystalline compound. The value is the arbitrary reference temperature θ = 298.15 K; p^0 = 10^5 Pa is the reference pressure.
The transpiration method was used for the sublimation experiment. A stream of an inert gas (nitrogen) was passed over a sample at the constant temperature and flow rate; saturation of the gas with the substance vapor was achieved by low transpiration rate of gas. Then, the sublimated quantity of condensed vapor was determined. The volume of the inert gas and the amount of the sublimated material were used for calculation the vapor pressure over the sample of compound at this temperature. The following procedure was used for determination the amount of sublimed substance. The condensed sample was dissolved in a known volume of solvent Vsol. The mass of the substance was determined by the measurement of absorbance A of its solution (spectrophotometer Cary-50, Varian, Palo Alto, CA, USA, Software Version 3.00 (339)). According to the Lambert–Beer law the concentration of the solution c (mol·L^−1) can express knowing a value of the extinction coefficient ε (l·mol^−1·cm^−1) of the studied compound dissolved in the solvent and an absorbing path length (l):A = εcl(5) where l is an absorbing path length. Calculation the mass of sublimed compound was performed according to the equation:m = cVsolM(6)
M is the molar mass of the studied substance.
The vapor pressure p at each temperature was determined from the amount of the substance collected within a known time:p = mRTa/VM(7) where V is the volume of the gaseous nitrogen evaluated from the time measurement and the flow rate at the flow meter temperature Ta and the atmospheric pressure. Uncertainties for transpiration experiment parameters (T, m, Ta, V) are reported as standard deviations (Table 1). The combined standard uncertainty of vapor pressure measurements were estimated taking into account uncertainties of all variables involved in eq 7.
The details of equipment and experimental procedure are given in [33]. The sublimation technique was tested with benzoic acid as standard. The experimental vapor pressure values were obtained in the temperature interval of (307–385) K and were in good agreement with the results of studies within the limits of experimental error (Figure S7). The standard sublimation enthalpy of benzoic acid measured by us was 90.5 ± 0.3 kJ·mol^−1 and consistent with recommended by IUPAC value—89.7 ± 0.5 kJ·mol^−1 [38]. Each experiment at fixed temperature was repeated three times with the standard deviation of up to 5%.

[1] = 298.15 K, experimental, Clarke and Glew equation

For C[C@@H](c1nc(-c2ccc(C#N)cc2)cs1)[C@](O)(Cn1cncn1)c1cc(F)ccc1F [IVZ, Isavuconazole], the “standard molar Gibbs energy of sublimation ΔcrgGm°(298.15 K)” value [1] was 16.5 ± 0.048 kcal/mol, the “standard molar enthalpy of sublimation ΔcrgHm°(298.15 K)” value [1] was 33.01 kcal/mol and 33.01 ± 0.12 kcal/mol and the “standard molar Gibbs energy of sublimation ΔcrgGm°(298.15 K)” value (298.15 K, experimental, Clarke and Glew equation, listed as Isavuconazole) was 16.5 kcal/mol. For the same molecule, the “vapor pressure 10^3 p” value (365.15 K) was 1.95 Pa, the “saturated vapor pressure values” (365.15–383.15 K) was 0.001–0.01 Pa and the “vapor pressure 10^3 p” value (367.15 K) was 2.50 Pa. The “vapor pressure 10^3 p” value (369.15 K) was 3.19 Pa, the “vapor pressure 10^3 p” value (371.15 K) was 4.02 Pa and the “vapor pressure 10^3 p” value (372.15 K) was 4.55 Pa. For the same molecule, the “vapor pressure 10^3 p” value (373.15 K) was 5.11 Pa, the “vapor pressure 10^3 p” value (374.15 K) was 5.72 Pa and the “vapor pressure 10^3 p” value (376.15 K) was 7.22 Pa. The “vapor pressure 10^3 p” value (378.15 K) was 8.83 Pa, the “vapor pressure 10^3 p” value (379.15 K) was 9.83 Pa and the “vapor pressure 10^3 p” value (380.15 K) was 11.19 Pa. For the same molecule, the “vapor pressure 10^3 p” value (381.15 K) was 12.30 Pa, the “vapor pressure 10^3 p” value (382.15 K) was 13.79 Pa and the “vapor pressure 10^3 p” value (383.15 K) was 15.37 Pa. The lnp (365.15 K) was −6.241, the lnp (367.15 K) was −5.991 and the lnp (369.15 K) was −5.749. For the same molecule, the lnp (371.15 K) was −5.515, the lnp (372.15 K) was −5.393 and the lnp (373.15 K) was −5.277. For the same molecule, the lnp (374.15 K) was −5.163, the lnp (376.15 K) was −4.931 and the lnp (378.15 K) was −4.729. The lnp (379.15 K) was −4.622, the lnp (380.15 K) was −4.493 and the lnp (381.15 K) was −4.398. For the same molecule, the lnp (382.15 K) was −4.283, the lnp (383.15 K) was −4.175 and the “ΔcrgSm°(298.15 K)” value (sublimation, 298.15 K) was 230.4 ± 4.6 J·mol^−1·K^−1. For the same molecule, the “ΔcrgCp,m°” value (sublimation, gas minus crystal heat capacity) was −71.8 J·mol^−1·K^−1.
